Laboratory results from patent US20040210959A1, “A Novel Method for Production of Transformed Dihaploid Corn Plants” (MONSANTO TECHNOLOGY LLC, priority 2003, published 2004).

Assays:
[1] = test system: immature embryos and callus from inbred X KHI/pehA crosses; test: Negative selection of pehA-containing immature embryos/callus on callus induction medium with glyceryl glyphosate; type: cell-based, corn; conditions: 10 to 14 days on callus induction medium; glyceryl glyphosate 0 to 5 mM
Excerpt: An efficient identification of corn haploid immature embryos, and callus derived from them, can be achieved by using the negative selectable marker gene pehA (phosphonate monoesterase). Cells that express the pehA gene convert the non-toxic glycerol glyphosate to toxic glyphosate and subsequently die. It is understood, however, that other negative selectable marker genes such as cytosine deaminase (which converts 5-fluorocytosine to 5-fluorouracil, which is toxic to cell growth [Plant Cell Reports 2001; 20:738-743]) may also be used equally effectively.
Inbred lines selected for the production of haploid immature embryos or callus can be pollinated with KHI that has been transformed with, and is homozygous for, the selectable marker gene pehA. After culturing on media containing glyceryl glyphosate, diploid (pehA containing) explants fail to grow, whereas maternal haploid explants produce callus typical of the maternal inbred.
Inbred lines selected for the production of haploid immature embryos or callus were pollinated with KHI that had been transformed with, and was homozygous for, the selectable marker gene pehA. The resulting ears were harvested when their embryos were 1.25 to 2.25 mm in size. Immature embryos were plated on suitable culture media to induce the desired type of callus. […]

[2] = test system: corn line D haploid callus; test: Chromosome doubling of haploid callus with colchicine; ploidy of regenerated plants by flow cytometry; type: cell-based; conditions: 3 days; for Diploid plants / Haploid plants / Tetraploid plants: 0.025% colchicine
Excerpt: When a sufficient amount of transgenic callus has grown (approximately 0.25 g), the haploid callus can be doubled to produce dihaploid callus. The callus can be transferred to a 100×20 mm petri plate that contains a structure for supporting callus in a liquid medium such as three filter papers or 2 pieces of 100% acrylic felt. Those of skill in the art are aware of the numerous modifications to liquid media for supporting cultured tissues. To the Petri dish can be added a suitable culture medium lacking selection agents but containing 0.025% colchicine or other chromosome doubling agents such as Oryzalin, pronamide, or APM (amiprophos-methyl) as known to one of skill in the art (i.e., Wan et al., Theor. Appl. Genet., 81: 205-211, 1991). Enough medium and chromosome doubling agent is added to the Petri dish to keep the callus support moist, but not so much that it covers the callus. The callus is then incubated at 28° C. for 3 days in the dark.
After the co-cultivation, the callus pieces were transferred onto two pieces of 2cm^2×1 mm thick 100% acrylic felt with approximately 25 mL liquid MSW57 (Table 3) supplemented with 750 mg/L carbenicillin and 100 mg/L paromomycin in petri dishes (100 mm×25 mm) with 16 calli per plate. The plates were kept in a dark culture room at 28° C. for approximately 7-10 days after which the old medium was removed by aspiration and fresh selection medium was added to the plates. After two 10-day selection periods, the old medium was removed by aspiration and replaced with fresh MSW57 medium containing 0.025% colchicine. The tissues remained on the colchicine medium for 3 days after which the colchicine medium was removed by aspiration and replaced with fresh selection medium containing 750 mg/L carbenicillin and 100 mg/L paromomycin.
After an additional two 10-day selection periods on selection medium, the cultures were moved to a culture room with 16-h light/8-h dark photoperiod at 28° C. and the liquid medium was replaced with liquid MS-6BA medium (Table 3) with 100 mg/L paromomycin and 500 mg/L carbenicillin. After 7 days, the callus pieces were transferred onto the second regeneration medium, a hormone-free MS-based medium (MSOD, Table 3) with 100 mg/L paromomycin in petri dishes (100 mm×25 mm). In another 2 weeks, the callus pieces that had shoots regenerated or were still alive were transferred onto the same hormone-free medium in Phytatrays for further growth. Regenerated plants (R0) when they reached to the top of Phytatrays and had one or more healthy roots were moved to soil in peat pots in a growth chamber. In 7 to 10 days, they were transplanted into 12-in pots after determining by flow cytometry that they were doubled haploids. Using this procedure, 23 transgenic events were produced from a total of 528 pieces of callus exposed to Agrobacterium and selection on paromomycin (Table 6).

Structure (SMILES) | growth of diploid (pehA containing) immature embryos [1] | growth of maternal haploid immature embryos [1] | doubling chromosomes of haploid callus ([2]; corn line D haploid callus, MSW57 medium with 0.025% colchicine) | Diploid plants ([2]; haploid callus line S33-B2) | Haploid plants ([2]; haploid callus line S33-B2) | Diploid plants ([2]; haploid callus line S41-A1) | Haploid plants ([2]; haploid callus line S41-A1) | Diploid plants ([2]; haploid callus line S42-B4) | Haploid plants ([2]; haploid callus line S42-B4) | Tetraploid plants ([2]; haploid callus line S42-B4) | Diploid plants ([2]; haploid callus line S43-B1) | Haploid plants ([2]; haploid callus line S43-B1) | Tetraploid plants ([2]; haploid callus line S43-B1) | Diploid plants ([2]; haploid callus line S49-B1) | Haploid plants ([2]; haploid callus line S55-B1) | Tetraploid plants ([2]; haploid callus line S55-B1)
O=C(O)CNCP(=O)(O)OCC(O)CO (stereo not shown) [glyceryl glyphosate] | failed to grow | produced callus typical of maternal inbred |  |  |  |  |  |  |  |  |  |  |  |  |  | 
COc1cc2c(c(OC)c1OC)-c1ccc(OC)c(=O)cc1[C@@H](NC(C)=O)CC2 [colchicine] |  |  | effective in doubling chromosomes | 67% | 33% | 50% | 50% | 33% | 33% | 33% | 50% | 17% | 33% | 100% | 33% | 67%
